The test system of the assay is Carrageenan acute paw edema in Wistar rats. Description: anti-inflammatory effect in the acute paw edema model (Carrageenan) in Wistar rats. It counts as in vivo. The note with it: 50 mg/kg oral, basal = 100; for paw volume, Time 1 hr: 1 hr after carrageenan; for paw volume, Time 2 hr: 2 hr after carrageenan; for paw volume, Time 3 hr: 3 hr after carrageenan; for paw volume, Time 4 hr: 4 hr after carrageenan; for paw volume, Time 5 hr: 5 hr after carrageenan; for paw volume, Time 6 hr: 6 hr after carrageenan. On the procedure:
General Procedure for Screening:
Evaluated the anti-inflammatory effect of compounds of formula-I using acute paw edema model in Wistar rats using the following procedure.
All animals will be divided into required number of groups (n=6 per group; 8-12 weeks age) on the basis of body weight. After grouping basal paw volume of all animals will be measured with the help of plethysmometer instrument followed by drug administration by oral route. After 1 hr of dosing 100 μL of 1% Carrageenan prepared in normal saline will be administered in hind paw of all animals by S.C route. After 1 hr of carrageenan dosing paw volume of all animals will be measure up to 6 hr at each 1 hr interval.
(Carrageenan injected into the paw causes an acute inflammation.)

The results in this text go back to patent US9708258B2, “Indole 3-carbinol derivatives” (Cadila Pharmaceuticals Ltd, priority 2013, dated 2017).

With `CC(C)(C)OC(=O)n1cc(COC(=O)CCC(=O)O)c2ccccc21` [CPL-2012-136, Succinic acid mono-(1-tert-butoxycarbonyl-1H-indol-3-ylmethyl) ester], the “paw volume, Time 1 hr” value was determined as 117.26; the “paw volume, Time 2 hr” value amounted to 121.86; the “paw volume, Time 3 hr” value turned out to be 123.85; the “paw volume, Time 4 hr” value was determined as 121.57. In addition, the “paw volume, Time 5 hr” value amounted to 119.72 and the “paw volume, Time 6 hr” value is on record as 111.76.
On to `CCCCC(=O)OCc1cn(C(=O)OC(C)(C)C)c2ccccc12` [CPL-2012-144, 3-Pentanoyloxymethyl-indole-1-carboxylic acid tert-butyl ester], for which the “paw volume, Time 1 hr” value was determined as 112.98; the “paw volume, Time 2 hr” value is reported as 123.96; the “paw volume, Time 3 hr” value is recorded as 125.7; the “paw volume, Time 4 hr” value came to 123.32. The “paw volume, Time 5 hr” value is reported as 123.07 and the “paw volume, Time 6 hr” value is listed as 121.46.
On to `CC(C)(C)OC(=O)n1cc(C(O)c2cc(F)c(F)cc2F)c2ccccc21` (stereo not drawn) [CPL-2013-156, 3-[Hydroxy-(2,4,5-trifluoro-phenyl)-methyl]indole-1-carboxylic acid tert-butyl ester], for which the “paw volume, Time 1 hr” value is given as 115.2; the “paw volume, Time 2 hr” value came out at 113.62; the “paw volume, Time 3 hr” value worked out at 116.25; the “paw volume, Time 4 hr” value turned out to be 115.73. Further, the “paw volume, Time 5 hr” value is recorded as 113.69 and the “paw volume, Time 6 hr” value is 111.56.
`CCC(=O)OCc1cn(C(=O)OC(C)(C)C)c2ccccc12` [CPL-2012-139, 3-Propionyloxymethyl-indole-1-carboxylic acid tert-butyl ester]: the “paw volume, Time 1 hr” value worked out at 116.73; the “paw volume, Time 2 hr” value is on record as 123.68; the “paw volume, Time 3 hr” value was 122.72; the “paw volume, Time 4 hr” value was 120.63. Besides, the “paw volume, Time 5 hr” value is reported as 115.55 and the “paw volume, Time 6 hr” value turned out to be 113.42.
Regarding `CCC(=O)OCc1cn(C(=O)OCc2ccccc2)c2ccccc12` [CPL-2013-158, 3-Propionyloxymethyl-indole-1-carboxylic acid benzyl ester], the “paw volume, Time 1 hr” value came to 113.82; the “paw volume, Time 2 hr” value is 115.12; the “paw volume, Time 3 hr” value was found to be 112.02; the “paw volume, Time 4 hr” value is given as 112.46. The “paw volume, Time 5 hr” value was determined as 108.11 and the “paw volume, Time 6 hr” value amounted to 107.2.
